Measurements: PMC10504751, “Chalcone/1,3,4-Oxadiazole/Benzimidazole hybrids as novel anti-proliferative agents inducing apoptosis and inhibiting EGFR & BRAFV^600E” (BMC Chemistry, 2023)
Where two headings read alike, the source gives them in different places.

Assays:
Test in all cases: NCI one-dose SRB anti-proliferative screen
Assay type in all cases: cell-based
OVCAR-4 = settings: Homo sapiens, read-out: Cell growth inhibition %
Outline: (§1)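 Colorimetric sulforhodamine B assay after treatment with compound at one concentration, 10 µM.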

OVCAR-5 = settings: Homo sapiens, read-out: Cell growth inhibition %
Outline: as §1

M14 = settings: Homo sapiens, read-out: Cell growth inhibition %
Outline: as §1

LOX IMVI = settings: Homo sapiens; for inhibition at 10 µM: read-out: Cell growth inhibition %; for activity at 10 µM: LOX IMVI (Melanoma), 10 µM one dose, read-out: Growth Percent
Outline: as §1

UACC-62 = settings: Homo sapiens, read-out: Cell growth inhibition %
Outline: as §1

ACHN = settings: Homo sapiens, read-out: Cell growth inhibition %
Outline: as §1

MDA-MB-435 = settings: Homo sapiens, read-out: Cell growth inhibition %
Outline: as §1

SNB-19 = settings: Homo sapiens, read-out: Cell growth inhibition %
Outline: as §1

SK-MEL-28 = settings: Homo sapiens, read-out: Cell growth inhibition %
Outline: as §1

SK-MEL-5 = settings: Homo sapiens, read-out: Cell growth inhibition %
Outline: as §1

UO-31 = settings: Homo sapiens, read-out: Cell growth inhibition %
Outline: as §1

NCI-H460 = settings: Homo sapiens, read-out: Cell growth inhibition %
Outline: as §1

RPMI-8226 = settings: Homo sapiens, read-out: Cell growth inhibition %
Outline: as §1

TK-10 = settings: Homo sapiens, read-out: Cell growth inhibition %
Outline: as §1

MDA-MB-468 = settings: Homo sapiens, read-out: Cell growth inhibition %
Outline: as §1

SR = settings: Homo sapiens, read-out: Cell growth inhibition %
Outline: as §1

NCI-H226 = settings: Homo sapiens, read-out: Cell growth inhibition %
Outline: as §1

EKVX = settings: Homo sapiens, read-out: Cell growth inhibition %
Outline: as §1

UACC-257 = settings: Homo sapiens, read-out: Cell growth inhibition %
Outline: as §1

CCRF-CEM = settings: Homo sapiens, read-out: Cell growth inhibition %
Outline: as §1

SK-OV-3 = settings: Homo sapiens, read-out: Cell growth inhibition %
Outline: as §1

HOP-62 = settings: Homo sapiens, read-out: Cell growth inhibition %
Outline: as §1

PC-3 = settings: Homo sapiens, read-out: Cell growth inhibition %
Outline: as §1

HT29 = settings: Homo sapiens, HT-29, read-out: Cell growth inhibition %
Outline: as §1

SN12C = settings: Homo sapiens, read-out: Cell growth inhibition %
Outline: as §1

SW-620 = settings: Homo sapiens, read-out: Cell growth inhibition %
Outline: as §1

MALME-3M = settings: Homo sapiens, read-out: Cell growth inhibition %
Outline: as §1

HL-60(TB) = settings: Homo sapiens, read-out: Cell growth inhibition %
Outline: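 Activity reflects a single-point exposure at 10 µM, with cell mass determined by a sulforhodamine B dye assay.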

BT-549 = settings: Homo sapiens, read-out: Cell growth inhibition %
Outline: as §1

OVCAR-8 = settings: Homo sapiens, read-out: Cell growth inhibition %
Outline: as §1

SF-539 = settings: Homo sapiens, read-out: Cell growth inhibition %
Outline: as §1

NCI/ADR-RES = settings: Homo sapiens, read-out: Cell growth inhibition %
Outline: as §1

Compound `COc1ccc(/C=C/C(=O)c2ccc(NC(=O)CSc3nnc(-c4ccc5[nH]c(-c6ccc(Cl)cc6)nc5c4)o3)cc2)cc1` [Compound 7h, 2-{5-[2-(4-Chlorophenyl)-1 H-benzo[d]imidazol-5-yl]-1,3,4-oxadiazol-2-ylthio}-N-{4-[(E)-3-(4-methoxyphenyl)acryloyl]phenyl}acetamide] has an inhibition at 10 µM (OVCAR-4; OVCAR-4 (Ovarian Cancer), NCI one dose 10 µM) of 0%, an inhibition at 10 µM (OVCAR-5; OVCAR-5 (Ovarian Cancer), NCI one dose 10 µM) of 0% and an inhibition at 10 µM (M14; M14 (Melanoma), NCI one dose 10 µM) of 0%. For the same compound, the inhibition at 10 µM (LOX IMVI; LOX IMIV (Melanoma), NCI one dose 10 µM) was 93.2%, the activity at 10 µM (LOX IMVI) was -32 to 18% and the inhibition at 10 µM (UACC-62; UACC-62 (Melanoma), NCI one dose 10 µM) was 16.2%. The inhibition at 10 µM (ACHN; ACHN (Renal Cancer), NCI one dose 10 µM) was 0%, the inhibition at 10 µM (MDA-MB-435; MDA-MB-435 (Melanoma), NCI one dose 10 µM) was 1.94% and the inhibition at 10 µM (SNB-19; SNB-19 (CNS Cancer), NCI one dose 10 µM) was 0%. For the same compound, the inhibition at 10 µM (SK-MEL-28; SK-MEL-28 (Melanoma), NCI one dose 10 µM) was 0%, the inhibition at 10 µM (SK-MEL-5; SK-MEL-5 (Melanoma), NCI one dose 10 µM) was 10.3% and the inhibition at 10 µM (UO-31; UO-31 (Renal Cancer), NCI one dose 10 µM) was 12.5%. It also gave an inhibition at 10 µM (NCI-H460; NCI-H460 (Non-Small Cell Lung Cancer), NCI one dose 10 µM) of 0%, an inhibition at 10 µM (RPMI-8226; RPMI-8226 (Leukemia), NCI one dose 10 µM) of 35.6% and an inhibition at 10 µM (TK-10; TK-10 (Renal Cancer), NCI one dose 10 µM) of 0%. For the same compound, the inhibition at 10 µM (MDA-MB-468; MDA-MB-468 (Breast Cancer), NCI one dose 10 µM) was 0%, the inhibition at 10 µM (SR; SR (Leukemia), NCI one dose 10 µM) was 19.5% and the inhibition at 10 µM (NCI-H226; NCI-H226 (Non-Small Cell Lung Cancer), NCI one dose 10 µM) was 12.4%. It also gave an inhibition at 10 µM (EKVX; EKVX (Non-Small Cell Lung Cancer), NCI one dose 10 µM) of 0%, an inhibition at 10 µM (UACC-257; UACC-257 (Melanoma), NCI one dose 10 µM) of 0% and an inhibition at 10 µM (CCRF-CEM; CCRF-CEM (Leukemia), NCI one dose 10 µM) of 40.1%. It also gave an inhibition at 10 µM (SK-OV-3; SK-OV-3 (Ovarian Cancer), NCI one dose 10 µM) of 0%, an inhibition at 10 µM (HOP-62; HOP-62 (Non-Small Cell Lung Cancer), NCI one dose 10 µM) of 0% and an inhibition at 10 µM (PC-3; PC-3 (Prostate Cancer), NCI one dose 10 µM) of 17.5%. It also gave an inhibition at 10 µM (HT29; HT29 (Colon Cancer), NCI one dose 10 µM) of 0%, an inhibition at 10 µM (SN12C; SN 12C (Renal Cancer), NCI one dose 10 µM) of 6.65% and an inhibition at 10 µM (SW-620; SW-620 (Colon Cancer), NCI one dose 10 µM) of 0%. For the same compound, the inhibition at 10 µM (MALME-3M; MALME-3M (Melanoma), NCI one dose 10 µM) was 6.52%, the inhibition at 10 µM (HL-60(TB); HL-60(TB) (Leukemia), NCI one dose 10 µM) was 21.4% and the inhibition at 10 µM (BT-549; BT-549 (Breast Cancer), NCI one dose 10 µM) was 15%. The inhibition at 10 µM (OVCAR-8; OVCAR-8 (Ovarian Cancer), NCI one dose 10 µM) was 20.5%, the inhibition at 10 µM (SF-539; SF-539 (CNS Cancer), NCI one dose 10 µM) was 5.67% and the inhibition at 10 µM (NCI/ADR-RES; NCI/ADR-RES (Ovarian Cancer), NCI one dose 10 µM) was 0%.
`COc1ccc(-c2nc3cc(-c4nnc(SCC(=O)Nc5ccc(C(=O)/C=C/c6ccccc6)cc5)o4)ccc3[nH]2)cc1` [Compound 7k, 2-{5-[2-(4-Methoxyphenyl)-1 H-benzo[d]imidazol-5-yl]-1,3,4-oxadiazol-2-ylthio}-N-{4-[(E)-3-phenylacryloyl]phenyl}acetamide] gave an inhibition at 10 µM (OVCAR-4; OVCAR-4, Ovarian Cancer, NCI one dose) of 19.1%, an inhibition at 10 µM (OVCAR-5; OVCAR-5, Ovarian Cancer, NCI one dose) of 0% and an inhibition at 10 µM (M14; M14, Melanoma, NCI one dose) of 12.9%. The activity at 10 µM (LOX IMVI) was 14.9%, the inhibition at 10 µM (LOX IMVI; Melanoma, NCI one dose) was 85.1% and the inhibition at 10 µM (UACC-62; UACC-62, Melanoma, NCI one dose) was 20.1%. The inhibition at 10 µM (ACHN; ACHN, Renal cancer, NCI one dose) was 7.59%, the inhibition at 10 µM (MDA-MB-435; MDA-MB-435, Melanoma, NCI one dose) was 33.6% and the inhibition at 10 µM (SNB-19; SNB-19, CNS Cancer, NCI one dose) was 0%. For the same compound, the inhibition at 10 µM (SK-MEL-28; SK-MEL-28, Melanoma, NCI one dose) was 11.4%, the inhibition at 10 µM (SK-MEL-5; SK-MEL-5, Melanoma, NCI one dose) was 49.2% and the inhibition at 10 µM (UO-31; UO-31, Renal cancer, NCI one dose) was 33.8%. The inhibition at 10 µM (NCI-H460; NCI-H460, Non-Small Cell Lung Cancer, NCI one dose) was 6.61%, the inhibition at 10 µM (RPMI-8226; RPMI-8226, Leukemia, NCI one dose) was 86.7% and the inhibition at 10 µM (TK-10; TK-10, Renal cancer, NCI one dose) was 0%. It also gave an inhibition at 10 µM (MDA-MB-468; MDA-MB-468, Breast cancer, NCI one dose) of 19.5%, an inhibition at 10 µM (SR; SR, Leukemia, NCI one dose) of 51.6% and an inhibition at 10 µM (NCI-H226; NCI-H226, Non-Small Cell Lung Cancer, NCI one dose) of 35.4%. The inhibition at 10 µM (EKVX; EKVX, Non-Small Cell Lung Cancer, NCI one dose) was 13.9%, the inhibition at 10 µM (UACC-257; UACC-257, Melanoma, NCI one dose) was 0.49% and the inhibition at 10 µM (CCRF-CEM; CCRF-CEM, Leukemia, NCI one dose) was 48.2%. For the same compound, the inhibition at 10 µM (SK-OV-3; SK-OV-3, Ovarian Cancer, NCI one dose) was 0%, the inhibition at 10 µM (HOP-62; HOP-62, Non-Small Cell Lung Cancer, NCI one dose) was 0% and the inhibition at 10 µM (PC-3; PC-3, Prostate Cancer, NCI one dose) was 22.4%. The inhibition at 10 µM (HT29; HT29, Colon cancer, NCI one dose) was 14.1%, the inhibition at 10 µM (SN12C; SN 12C, Renal cancer, NCI one dose) was 15.2% and the inhibition at 10 µM (SW-620; SW-620, Colon cancer, NCI one dose) was 0%. It also gave an inhibition at 10 µM (MALME-3M; MALME-3M, Melanoma, NCI one dose) of 26.6%, an inhibition at 10 µM (HL-60(TB); HL-60(TB), Leukemia, NCI one dose) of 28.7% and an inhibition at 10 µM (BT-549; BT-549, Breast cancer, NCI one dose) of 38.1%. It also gave an inhibition at 10 µM (OVCAR-8; OVCAR-8, Ovarian Cancer, NCI one dose) of 28.2%, an inhibition at 10 µM (SF-539; SF-539, CNS Cancer, NCI one dose) of 27.5% and an inhibition at 10 µM (NCI/ADR-RES; NCI/ADR-RES, Ovarian Cancer, NCI one dose) of 10.3%.
